Assay results published in patent US20230089267A1, “Compositions and Methods For Reducing Immune Intolerance and Treating Autoimmune Disorders” (Lapix Therapeutics, Inc., priority 2021, published 2023).
pEC50: −log10 of the molar value. Counter-ions that a name gives are not always drawn.

What was measured:
[1] = test system: FoxP3+/CD4+ T-cells in splenocytes from naïve C57BL/6 mice; experiment: In vitro dose-response, percent FoxP3+/CD4+ T-cells in murine splenocytes; type: cell-based; conditions: for pEC50 / EC90: Mus musculus, T-cell, percent FoxP3+/CD4+ T-cells, 72 hours, 4-parameter log-logistic model fit; for mean FoxP3+/CD4+ T-cells, upper plateau, mean (SEM): high dose; for mean FoxP3+/CD4+ T-cells, upper plateau, mean (SEM) / mean FoxP3+/CD4+ T-cells, lower plateau, mean (SEM): from model fitting; for mean FoxP3+/CD4+ T-cells, lower plateau, mean (SEM): low dose
Experimental: All animal studies were conducted under IACUC number B2020-91 and in compliance with Tufts University/Tufts Medical Center & Human Nutrition Research Center on Aging. Animals were housed four in a cage and had access to food and water ad libitum. Anti-FoxP3 and anti-CD4 for flow cytometry were obtained from eBioscience. Compounds 1-3 were formulated with 10% DMPC in PBS. PS liposomes were synthesized at a 30:70 PS:lipid molar ratio.
Splenocytes from naïve C57BL/6 mice were stained with CFSE, seeded at 2×10^5 cells/well, and dosed with each compound from 1e^−4 μM to 3.0e^−9 μM using a log 2 dilution scheme. Cells were incubated for 72 hours before phenotyping for FoxP3+/CD4+ T-cells. Flow cytometer analysis was performed to assess changes in percent FoxP3+/CD4+ T-cells as a function of compound and dose. Concentration versus response was fitted to a 4-parameter, log-logistic model using the “dre” package in “R”. Both EC50 and EC90 were obtained by model fitting.
Cells were observed via a microscope at the end of the incubation period. All cells looked healthy and suitable for flow cytometry analysis.
Table 2 summarizes EC50 and EC90 values obtained from the model fitting.

[2] = test system: MOG35-55-induced murine EAE model; experiment: MOG35-55-induced murine EAE model, Compound 2 versus Compound 8 (Example 12); type: in vivo, mice; conditions: 3 μg/mouse/day SC, after ten days of treatment
Experimental: Mice were immunized with 100 μg MOG35-55 emulsified with CFA and pertussis toxin, as described in Example 4. At disease onset (clinical score 1), mice were randomized into two treatment groups, and received 3 μg/mouse/day SC of either Compound 2 or Compound 8.

[3] = test system: MOG35-55-induced murine EAE model; experiment: Escalation treatment paradigm in MOG35-55-induced murine EAE model (Example 8); type: in vivo, mice
Experimental: Compound 2 (0.03 mg/ml) was formulated with hydroxypropyl beta cyclodextrin (HPCD) 1:80 (Compound 2:HPCD) and stored at 4° C. until use. Natalizumab, an anti-α4β1 integrin antibody is a monoclonal antibody that is approved by U.S. Food and Drug Administration (FDA) for the treatment of relapsing forms of MS. […] Natalizumab was diluted in PBS to a final concentration of 15 mg/ml before dosing. DMF is a disease-modifying therapy (DMT) recommended for the treatment of active relapsing multiple sclerosis. DMF (1 g) was dissolved in 50 ml of 4% solution of METHOCEL© to give a 20 mg/ml solution of DMF. The solution was stored at 4° C. until use.
Experimental autoimmune (allergic) encephalomyelitis (EAE) is considered to be the best non-clinical model of multiple sclerosis (MS). Over 6,000 papers have been published in scientific journals on this model. EAE is characterized by immune responses against CNS tissue and can be induced in animals by immunizing them against proteins of the CNS. In the active EAE model, mice are immunized with MOG35-55 peptide emulsified in Complete Freund's Adjuvant (CFA) by subcutaneous injection at the tail base (100 μg of […] per mouse) under anesthesia. On the day of injection (Day 0) and two days later (Day 2), mice receive an intraperitoneal injection of pertussis toxin (PT) in PBS at 200 ng/mouse/dose (0.1 mL). Symptoms typically develop in mice 9-14 days after immunization (Day 0). Daily observation and scoring of mice start on Day 7 and continue until the end of the study. Table 5 (see Example 4 above) details the expected clinical symptoms and the scoring criteria used in this study.
This study was designed to evaluate the early sustained use of Compound 2 versus DMF in a treatment escalation paradigm (sustained use cohort), and Compound 2 versus natalizumab after DMF failure (escalation cohort). All animals in the escalation cohorts received 14 doses of DMF or Compound 2, or 3 doses of natalizumab, as per group assignment.
Probability of disease control: Disease control was defined as a clinical score of less than 2.5. Animals in the different treatment groups were monitored after the 3:1:1 randomization. A score of 2.5 was recorded as an event and analyzed by survival analysis in GraphPad Prism 9. Animals not reaching a clinical score of 2.5 by day 14, the end of the treatment period, were assigned a score of zero for the survival analysis.
Efficacy of Compound 2 versus DMF in early sustained use: Animals in the DMF group that reached a score of 2.5 were randomized 1:1:1, as per FIG. 5A. Animals randomized to continue DMF treatment were given the remainder of the 14 DMF doses. Animals from the first randomization that were treated with Compound 2 after disease onset continued treatment for a total of 14 doses. After the 14th dose, treatment was stopped and clinical score and overall survival were monitored.
Efficacy of Compound 2 versus natalizumab in a treatment escalation cohort: Animals in the DMF group that reached a score of 2.5 were randomized 1:1:1, as per FIG. 5A. Animals randomized to natalizumab were dosed 100 μg/mouse IV every 3 days for 3 total doses starting the same day a score of 2.5 was recorded. Animals randomized to Compound 2 were dosed with 3 μg/mouse SC QD for 14 total doses starting on the same day a score of 2.5 was recorded.
Overall survival: Death due to the disease was monitored in the early sustained use cohort as well as the escalation cohort. Death by disease (clinical score of 5) was recorded as an event “1,” death due to ulceration or for ex vivo analysis was recorded as “0.” Animals surviving until the end of the study were recorded “0” on day 27. Survival analysis was done in GraphPad Prism 9.

[4] = test system: MOG35-55-induced murine EAE model; experiment: Induction/maintenance treatment paradigm in MOG35-55-induced murine EAE model (Example 9); type: in vivo, mice
Experimental: Compound 2, natalizumab and DMF were prepared as described in Example 8. Table 5 (see Example 4) details the expected clinical symptoms and scoring criteria used in this study.
This study was designed to evaluate the therapeutic effects of Compound 2 versus natalizumab in a treatment induction/maintenance paradigm (induction cohort), and Compound 2 versus DMF after natalizumab (maintenance cohort). In the induction cohorts, animals were randomized 2:1:1 natalizumab:Compound 2:control when they reached a score of 2.5, as per FIG. 6A. Animals in the natalizumab cohort were given 100 μg natalizumab/mouse every 3 days for 3 doses before being randomized to the maintenance cohort. Animals randomized into the maintenance cohort after natalizumab received maintenance doses of DMF or Compound 2 (1:1 randomization), as per their group assignment for 14 days. Animals in the Compound 2 induction cohort were dosed with 30 μg Compound 2/mouse SC QD for a maximum of 7 days, or 3 consecutive days of disease score <2.5, at which time they were placed on a maintenance dose of 3 μg/mouse SC QD for 14 days. All animals in all groups were monitored for 14 days after the last dose for disease score and survival.
Disease control (induction therapy): Disease control was defined as maintaining a clinical score of 2.5 or less after randomization. Animals in the different treatment groups were monitored after the 2:1:1 randomization. Clinical scores were recorded daily for all animals and plotted over time. A score of >2.5 was recorded as an event and analyzed by survival analysis in GraphPad Prism 9. Animals not reaching a clinical score of 2.5 by the end of the induction period (day 7) were assigned a score of zero for the survival analysis.
Survival (induction therapy): Death due to disease (clinical score 5) during the treatment induction period was recorded as an event “1”, animals surviving until the end of the induction period, day 7 after randomization, were censored on day 7 for the purposes of survival analysis.
Disease control (maintenance therapy): At the end of the induction period with natalizumab, animals were randomized 1:1 to the DMF maintenance group or Compound 2 maintenance group as per FIG. 6A. Animals were dosed for 14 days, and clinical scores were monitored daily.
Survival (maintenance therapy): Death by disease (clinical score of 5) was recorded as an event “1”, death due to ulceration or ex vivo analysis was recorded as “0”. Animals surviving until the end of the study were recorded as “0” on the last day of the study. Survival analysis was done in GraphPad Prism 9.

passive MG model = experiment: Passive myasthenia gravis model, adoptive transfer to RAG2−/− mice; type: in vivo; conditions: by day 10, SC daily for ten days
Experimental: In this passive MG model in B6 mice, donor mice (n=20, aged 6-8 weeks) were immunized with complete Freund's adjuvant (CFA) and nicotinic acetylcholine receptor (AChR) emulsion weekly for four weeks. Seven days after the last immunization, splenocytes were collected, and 10^6 cells/mouse were transferred to RAG2^−/− mice. The recipient mice (n=10/group) were treated one day after adoptive transfer with prednisone (1 μg/mouse) SC daily for ten days after disease onset or Compound 2 3 μg SC daily for ten days after disease onset, or were left untreated. Minimal manifestation of disease was defined as a return to a clinical score of 1 after an exacerbation (score 2 or higher). Time to return to minimal score was logged, and the likelihood of return was plotted for untreated animals, and standard of care (SOC; prednisone)- and Compound 2-treated animals.

[5] = maintenance after natalizumab induction
[6] = escalation cohort after DMF failure (score 2.5), by day 14 after switching

## N[C@@H](CNC(=O)Cc1ccc(OCc2ccccc2)cc1)C(=O)O [Compound 1, (S)-2-amino-3-(2-(4-(benzyloxy)phenyl)acetamido)propanoic acid]
[1]
  pEC50: 8.69
  EC90: 688 nM
  mean FoxP3+/CD4+ T-cells, upper plateau, mean (SEM): 5.18%
  mean FoxP3+/CD4+ T-cells, lower plateau, mean (SEM): 1.47%

## N[C@@H](CNC(=O)Cc1ccc(OC(c2ccccc2)c2ccccc2)cc1)C(=O)O [Compound 3, (S)-2-amino-3-(2-(4-(benzhydryloxy)phenyl)acetamido)propanoic acid]
[1]; EC50 and EC90, respectively
  potency relative to PS, as measured by EC50 and EC90: two and one orders of magnitude higher (more potent) than PS
[1]
  pEC50: 8.42
  EC90: 20.4 nM
  mean FoxP3+/CD4+ T-cells, upper plateau, mean (SEM): 3.48%
  mean FoxP3+/CD4+ T-cells, lower plateau, mean (SEM): 1.32%

## N[C@@H](CNC(=O)Cc1ccc(OCc2cccc3ccccc23)cn1)C(=O)O [Compound 8, (S)-2-Amino-3-(2-(5-(naphthalen-1-ylmethoxy)pyridin-2-yl)acetamido)propanoic acid]
[2]
  mean clinical score, comparison of the two groups: no statistical difference

## COC(=O)/C=C/C(=O)OC [DMF, dimethyl fumarate, reference compound]
[3]; 14 doses, followed to end of study
  disease course in early sustained use cohort: progressed at the same rate as untreated control animals, with all animals reaching a clinical score of 5 by end of the study
[3]; to day 27
  overall survival, early sustained use cohort: all animals in the DMF-treated group died by day 26
[3]; treatment from disease onset (score 1), within 7 days of disease onset
  animals that progressed to a score of 2.5: All animals (n=30)
[4]; at start of maintenance
  mean clinical score of animals randomized to maintenance therapy after natalizumab induction: 2.5 (SD=0.4)
[4]; [5]
  animals that progressed to clinical score 5 (death by disease): 3 out of 4
  last measured score, day 7 after initiation of maintenance: 4.37 (SD=1.2)
[4]; maintenance after natalizumab induction, n=4 in each group
  mortality rate in maintenance cohort: 75%

## CCCCCC(=O)O[C@@H](COC(C)=O)CO[PH](=O)OC[C@H](N)C(=O)O (stereo partly shown) [PS, phosphatidylserine, reference compound]
[1]
  pEC50: 9.88
  EC90: 0.314 nM

## C[C@]12C=CC(=O)C=C1CC[C@@H]1[C@@H]2C(=O)C[C@@]2(C)[C@H]1CC[C@]2(O)C(=O)CO [prednisone, reference compound]
Passive MG model
  animals returned to minimal manifestation of disease (score 1): 46%

## natalizumab: anti-α4β1 integrin monoclonal antibody approved by FDA for the treatment of relapsing forms of MS [reference compound]
[3]; [6]
  mean clinical score after switching from DMF: 3.6 (SD=1.6)
  median clinical score after switching from DMF: 3.75
[3]; switched from DMF
  animals that survived until day 27, escalation cohort: 6 out of 9
[4]; induction period
  mice showing clinical score improvement and switched to maintenance before end of induction period: 0/18
[4]; induction period, day 7 after randomization
  animals that survived the treatment induction period: 11/18
[4]; induction therapy
  mice that died before completing the induction therapy: 38.8%
[4]; randomized at score 2.5, Compound 2 30 μg SC
  mean clinical score by day 7 of induction: 3.61 (SD=1.17)
[4]; randomized at score 2.5, natalizumab 100 μg/mouse every 3 days, Compound 2 30 μg SC
  animals that progressed to a clinical score >2.5 during induction: 12
